Tests used:
[1] = target: JAK1 (Homo sapiens (Human), UniProt P23458); test: Biochemical JAK1 kinase assay (LanthaScreen)
Summary of the method: (§1)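 GST-JAK + GFP-STAT1 peptide, HEPES pH 7.5/MgCl2/EGTA/Brij-35 buffer; cpd preincubation 1 h RT; ATP start, 1 h RT; stop with 10 mM EDTA + 2 nM Tb-anti-pSTAT1; TR-FRET 520/495. 4-parameter IC50 → pKi (Cheng-Prusoff).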

[2] = target: JAK3 (Homo sapiens (Human), UniProt P52333); test: Biochemical JAK3 kinase assay (LanthaScreen)
Summary of the method: as §1

[3] = test system: IL-2 stimulated STAT5 phosphorylation in Tall-1 human T cell line (JAK3); test: Cellular JAK3 potency assay: inhibition of IL-2 stimulated pSTAT5 in Tall-1 T cells; format: cell-based
Summary of the method: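 AlphaLISA SureFire Ultra measures STAT5 Tyr694/699 phosphorylation in lysed Tall-1 human T cells. Cells were exposed to compound for 1 h at 37 °C before a 30 min IL-2 challenge (300 ng/ml final). Values are pIC50 means with standard deviation from signal-versus-concentration curves.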

[4] = test system: Caco-2 cell monolayers; test: Caco-2 permeation assay; format: in vitro ADME; details: 5 μM, A-B direction, with Verapamil (25 μM)
Experimental: Assay 4: Caco-2 Permeation Assay
The Caco-2 permeation assay was performed to model the ability of test compounds to pass through the intestine and get into the blood stream after oral administration. The rate at which test compounds in solution permeate a cell monolayer designed to mimic the tight junction of human small intestinal monolayers was determined.
CacoReady 24-well transwell plates were obtained from ADMEcell (Alameda, Calif.). The compounds were evaluated at a concentration of 5 μM from 10 mM DMSO stock solutions in duplicate (n=2). The passive permeability of the compounds tested was evaluated using Caco-2 cell monolayers along with Verapamil (25 μM) to inhibit P-gp transport proteins in the apical to basolateral (A-B) direction. The experiment was conducted in a 37° C., 5% CO2 incubator. Caco-2 culture media consisted of standard filtered DMEM, FCS 10%, L-Glutamine 1% and PenStrep 1%. Basal assay plate was prepared by adding 750 μL of transport buffer to A-B wells. A CacoReady™ plate was prepared by removing the Caco-2 media from the apical wells and replacing with fresh transport media (200 μL repeated for a total of 3 washes). Blank media (200 μL) was then replaced with diluted compound for A-B wells. To begin the incubation, the basal plate was removed from the incubator and the apical section was added on top of it. Samples (40 μL) were collected from the apical and basal compartments for time zero (t0). Samples were collected again after 120 minutes (t120) from the apical and basal compartments. All samples were diluted and prepared for bioanalysis by LC-MS/MS. The permeation coefficient (Kp, mean A to B+ Verapamil Papparent) in cm/sec was calculated as dQ (flux)/(dt×Area×concentration).
In this assay, a Kp value less than about 5×10^−6 cm/sec is considered favorable to minimize systemic exposure and target the colon. A Kp value less than about 10×10^−6 cm/sec may also be sufficient to minimize systemic exposure and target the colon.

[5] = target: JAK2 (Homo sapiens (Human), UniProt O60674); test: Biochemical JAK2 kinase assay (LanthaScreen)
Chain of JAK2 (O60674 whole entry): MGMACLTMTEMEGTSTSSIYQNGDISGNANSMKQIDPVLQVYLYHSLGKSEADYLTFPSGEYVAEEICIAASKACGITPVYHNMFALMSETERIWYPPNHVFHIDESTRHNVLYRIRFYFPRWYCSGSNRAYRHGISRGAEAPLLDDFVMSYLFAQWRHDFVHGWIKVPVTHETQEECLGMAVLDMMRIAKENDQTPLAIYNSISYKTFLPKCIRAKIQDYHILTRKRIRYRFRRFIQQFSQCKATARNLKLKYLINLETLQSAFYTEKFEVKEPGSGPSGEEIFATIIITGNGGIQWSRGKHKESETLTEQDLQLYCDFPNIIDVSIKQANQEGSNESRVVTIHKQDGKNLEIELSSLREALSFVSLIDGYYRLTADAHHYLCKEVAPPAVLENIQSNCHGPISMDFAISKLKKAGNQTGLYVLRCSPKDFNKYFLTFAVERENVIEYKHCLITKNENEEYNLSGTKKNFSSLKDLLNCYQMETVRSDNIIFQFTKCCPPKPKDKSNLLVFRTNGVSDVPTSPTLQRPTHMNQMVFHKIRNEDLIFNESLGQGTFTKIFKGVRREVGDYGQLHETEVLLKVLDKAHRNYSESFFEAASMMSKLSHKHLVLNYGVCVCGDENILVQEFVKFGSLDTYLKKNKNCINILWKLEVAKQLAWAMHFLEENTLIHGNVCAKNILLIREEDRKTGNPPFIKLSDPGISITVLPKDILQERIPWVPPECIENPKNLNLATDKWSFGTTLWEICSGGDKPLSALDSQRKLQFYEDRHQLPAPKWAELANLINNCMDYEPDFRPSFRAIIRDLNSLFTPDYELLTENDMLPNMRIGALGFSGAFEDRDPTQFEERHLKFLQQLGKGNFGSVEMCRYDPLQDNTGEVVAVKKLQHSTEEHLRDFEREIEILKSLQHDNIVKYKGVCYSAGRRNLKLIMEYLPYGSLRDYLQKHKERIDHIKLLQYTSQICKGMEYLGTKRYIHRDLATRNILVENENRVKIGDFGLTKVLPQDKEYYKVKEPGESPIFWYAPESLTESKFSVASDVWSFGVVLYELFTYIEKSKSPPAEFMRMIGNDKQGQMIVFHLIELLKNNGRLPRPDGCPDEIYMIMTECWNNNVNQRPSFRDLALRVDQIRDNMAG
Summary of the method: as §1

[6] = target: Tyk2 (Homo sapiens (Human), UniProt P29597); test: Biochemical Tyk2 kinase assay (LanthaScreen)
Chain of Tyk2 (P29597 whole entry): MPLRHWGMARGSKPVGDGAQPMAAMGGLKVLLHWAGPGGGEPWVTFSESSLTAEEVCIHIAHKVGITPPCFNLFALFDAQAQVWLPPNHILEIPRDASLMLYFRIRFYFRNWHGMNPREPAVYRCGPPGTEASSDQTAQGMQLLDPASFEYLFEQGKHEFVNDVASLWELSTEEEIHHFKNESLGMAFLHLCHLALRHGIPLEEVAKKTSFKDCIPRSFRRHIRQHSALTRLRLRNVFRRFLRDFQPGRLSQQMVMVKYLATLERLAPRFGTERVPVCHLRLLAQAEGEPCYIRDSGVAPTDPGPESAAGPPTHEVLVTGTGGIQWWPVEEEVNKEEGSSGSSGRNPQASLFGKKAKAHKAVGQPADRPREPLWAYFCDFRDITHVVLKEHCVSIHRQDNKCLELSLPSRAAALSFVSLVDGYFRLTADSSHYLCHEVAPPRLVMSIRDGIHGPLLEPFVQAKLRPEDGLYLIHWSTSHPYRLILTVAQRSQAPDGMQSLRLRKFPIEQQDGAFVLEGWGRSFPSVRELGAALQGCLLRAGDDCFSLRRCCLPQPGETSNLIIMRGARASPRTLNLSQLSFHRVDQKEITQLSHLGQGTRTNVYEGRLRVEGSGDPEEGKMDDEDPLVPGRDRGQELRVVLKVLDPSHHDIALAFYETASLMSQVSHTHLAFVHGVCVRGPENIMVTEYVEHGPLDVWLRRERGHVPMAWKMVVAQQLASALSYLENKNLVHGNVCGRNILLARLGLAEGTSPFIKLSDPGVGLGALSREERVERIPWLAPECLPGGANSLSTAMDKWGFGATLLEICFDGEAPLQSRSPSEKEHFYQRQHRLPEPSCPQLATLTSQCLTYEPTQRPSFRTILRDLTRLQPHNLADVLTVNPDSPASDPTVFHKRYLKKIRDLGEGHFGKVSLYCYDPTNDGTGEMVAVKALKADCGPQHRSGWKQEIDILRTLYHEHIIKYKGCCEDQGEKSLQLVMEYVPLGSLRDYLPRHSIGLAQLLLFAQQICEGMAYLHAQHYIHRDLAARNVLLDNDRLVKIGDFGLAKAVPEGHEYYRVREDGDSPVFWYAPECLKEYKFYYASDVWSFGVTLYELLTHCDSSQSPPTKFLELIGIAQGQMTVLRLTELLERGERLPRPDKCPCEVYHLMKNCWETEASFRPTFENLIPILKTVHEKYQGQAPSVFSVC
Summary of the method: as §1

[7] = selectivity JAK3 over JAK1, difference of pKi
[8] = IL-2 stimulated pSTAT5, Tall-1 T cells
[9] = selectivity, difference of pKi values
[10] = IL-2 stimulated pSTAT5 in Tall-1 T cells

Chain of JAK3 (P52333 whole entry): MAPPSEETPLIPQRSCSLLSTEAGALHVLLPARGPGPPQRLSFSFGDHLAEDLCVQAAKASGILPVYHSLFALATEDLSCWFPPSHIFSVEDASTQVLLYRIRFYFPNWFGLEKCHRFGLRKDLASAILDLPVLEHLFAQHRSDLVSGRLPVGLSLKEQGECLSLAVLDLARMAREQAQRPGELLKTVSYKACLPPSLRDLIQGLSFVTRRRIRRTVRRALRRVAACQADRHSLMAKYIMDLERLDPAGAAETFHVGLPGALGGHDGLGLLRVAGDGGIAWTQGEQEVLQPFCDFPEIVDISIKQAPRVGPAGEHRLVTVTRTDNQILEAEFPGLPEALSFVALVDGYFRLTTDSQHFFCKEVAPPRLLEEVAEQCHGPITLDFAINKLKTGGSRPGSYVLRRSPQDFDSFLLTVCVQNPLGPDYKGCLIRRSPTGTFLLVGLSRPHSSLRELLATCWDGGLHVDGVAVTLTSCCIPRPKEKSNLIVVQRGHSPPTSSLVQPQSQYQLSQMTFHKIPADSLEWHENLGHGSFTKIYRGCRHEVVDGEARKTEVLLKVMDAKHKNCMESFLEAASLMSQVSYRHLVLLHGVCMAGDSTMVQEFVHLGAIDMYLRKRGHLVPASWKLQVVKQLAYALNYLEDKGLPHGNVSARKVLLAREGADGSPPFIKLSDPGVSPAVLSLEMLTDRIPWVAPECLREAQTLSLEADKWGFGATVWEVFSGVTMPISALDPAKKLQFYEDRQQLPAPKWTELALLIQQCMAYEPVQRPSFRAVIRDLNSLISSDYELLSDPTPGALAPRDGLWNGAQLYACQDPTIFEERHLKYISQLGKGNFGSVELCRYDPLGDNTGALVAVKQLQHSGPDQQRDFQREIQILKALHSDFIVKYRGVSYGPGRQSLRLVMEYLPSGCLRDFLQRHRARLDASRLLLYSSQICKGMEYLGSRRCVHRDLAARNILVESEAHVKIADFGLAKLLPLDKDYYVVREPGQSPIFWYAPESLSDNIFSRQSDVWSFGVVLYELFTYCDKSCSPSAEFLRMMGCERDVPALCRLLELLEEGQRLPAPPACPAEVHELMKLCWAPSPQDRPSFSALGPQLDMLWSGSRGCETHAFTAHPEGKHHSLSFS
Chain of JAK1 (P23458 whole entry): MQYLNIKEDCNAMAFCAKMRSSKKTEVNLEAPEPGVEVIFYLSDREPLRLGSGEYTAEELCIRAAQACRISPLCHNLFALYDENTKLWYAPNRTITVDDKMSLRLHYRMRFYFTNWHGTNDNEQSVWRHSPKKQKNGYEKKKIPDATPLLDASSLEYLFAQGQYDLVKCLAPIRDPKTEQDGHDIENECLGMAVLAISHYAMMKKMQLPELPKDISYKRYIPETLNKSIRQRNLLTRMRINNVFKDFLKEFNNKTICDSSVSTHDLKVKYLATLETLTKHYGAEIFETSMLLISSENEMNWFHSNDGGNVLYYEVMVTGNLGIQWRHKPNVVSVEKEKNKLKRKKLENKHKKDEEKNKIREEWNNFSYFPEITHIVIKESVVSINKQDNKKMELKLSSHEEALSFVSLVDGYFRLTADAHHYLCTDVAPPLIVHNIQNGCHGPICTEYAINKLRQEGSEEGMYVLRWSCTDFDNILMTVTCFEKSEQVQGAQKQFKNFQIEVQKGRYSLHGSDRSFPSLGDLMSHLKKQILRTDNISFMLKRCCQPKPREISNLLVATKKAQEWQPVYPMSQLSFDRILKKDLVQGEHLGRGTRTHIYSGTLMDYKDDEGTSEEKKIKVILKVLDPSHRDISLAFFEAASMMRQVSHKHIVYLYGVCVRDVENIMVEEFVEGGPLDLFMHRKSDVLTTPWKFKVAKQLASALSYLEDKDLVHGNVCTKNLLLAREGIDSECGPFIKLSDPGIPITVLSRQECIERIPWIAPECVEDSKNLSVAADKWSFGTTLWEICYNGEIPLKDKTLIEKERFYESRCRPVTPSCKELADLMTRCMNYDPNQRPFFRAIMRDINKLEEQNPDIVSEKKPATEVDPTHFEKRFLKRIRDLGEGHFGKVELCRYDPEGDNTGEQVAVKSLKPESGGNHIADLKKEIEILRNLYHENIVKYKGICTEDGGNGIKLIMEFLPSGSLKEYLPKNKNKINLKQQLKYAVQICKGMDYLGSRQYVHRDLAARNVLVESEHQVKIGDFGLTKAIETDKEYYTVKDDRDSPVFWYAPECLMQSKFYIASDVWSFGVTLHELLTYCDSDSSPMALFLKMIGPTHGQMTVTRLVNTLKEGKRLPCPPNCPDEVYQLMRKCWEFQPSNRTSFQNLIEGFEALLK

C=CC(=O)N1CC(CCn2c(=O)ccc3cnc(Nc4cnn(CC(F)F)c4)nc32)C1 [Example 20]
JAK 1 (pKi) [1]: E (E represents a pKi value of 7 or below (Ki of 100 nM or above))
JAK 3 (pKi) [2]: B (B represents pKi value between 9 and 10 (Ki between 1 nM and 0.1 nM))
JAK3 (pKi)-JAK1 (pKi) [2, 7]: A (A represents a value of 3 or above)
Tall-1 (pIC50) [3, 8]: C (C represents a pIC50 value between 6 and 6.7 (IC50 between 1 μM and 200 nM))
Caco Kp [4]: B (B represents a value between 5×10^−6 and 10×10^−6 cm/sec)

C=CC(=O)N1CC(CCn2c(=O)ccc3cnc(Nc4cccc(N5CCOCC5)c4)nc32)C1 [Example 28]
JAK 1 (pKi) [1]: E (E represents a pKi value of 7 or below (Ki of 100 nM or above))
JAK 3 (pKi) [2]: B (B represents pKi value between 9 and 10 (Ki between 1 nM and 0.1 nM))
JAK3 (pKi)-JAK1 (pKi) [2, 7]: A (A represents a value of 3 or above)
Tall-1 (pIC50) [3, 8]: C (C represents a pIC50 value between 6 and 6.7 (IC50 between 1 μM and 200 nM))
Caco Kp [4]: C (C represents a value between 10×10^−6 and 30×10^−6 cm/sec)

C=CC(=O)N1CC(CCn2c(=O)ccc3cnc(Nc4cnn(CCO)c4)nc32)C1 [Example 35]
JAK 1 (pKi) [1]: E (E represents a pKi value of 7 or below (Ki of 100 nM or above))
JAK 3 (pKi) [2]: B (B represents pKi value between 9 and 10 (Ki between 1 nM and 0.1 nM))
JAK3 (pKi)-JAK1 (pKi) [2, 7]: A (A represents a value of 3 or above)
Tall-1 (pIC50) [3, 8]: C (C represents a pIC50 value between 6 and 6.7 (IC50 between 1 μM and 200 nM))
Caco Kp [4]: A (A represents a value below 5×10^−6 cm/sec)

C=CC(=O)N1CC(CCn2c(=O)ccc3cnc(Nc4cnn(C(F)F)c4)nc32)C1 [Example 36]
JAK 1 (pKi) [1]: E (E represents a pKi value of 7 or below (Ki of 100 nM or above))
JAK 3 (pKi) [2]: B (B represents pKi value between 9 and 10 (Ki between 1 nM and 0.1 nM))
JAK3 (pKi)-JAK1 (pKi) [2, 7]: A (A represents a value of 3 or above)
Tall-1 (pIC50) [3, 8]: C (C represents a pIC50 value between 6 and 6.7 (IC50 between 1 μM and 200 nM))
Caco Kp [4]: C (C represents a value between 10×10^−6 and 30×10^−6 cm/sec)

C=CC(=O)N1CC(CCn2c(=O)ccc3cnc(Nc4ccc(N5CCOCC5=O)cc4)nc32)C1 [Example 47]
JAK 1 (pKi) [1]: E (E represents a pKi value of 7 or below (Ki of 100 nM or above))
JAK 3 (pKi) [2]: B (B represents pKi value between 9 and 10 (Ki between 1 nM and 0.1 nM))
JAK3 (pKi)-JAK1 (pKi) [2, 7]: A (A represents a value of 3 or above)
Tall-1 (pIC50) [3, 8]: C (C represents a pIC50 value between 6 and 6.7 (IC50 between 1 μM and 200 nM))
Caco Kp [4]: A (A represents a value below 5×10^−6 cm/sec)

C=CC(=O)N1CC(CCn2c(=O)ccc3cnc(Nc4ccc(N5CCSCC5)nc4)nc32)C1 [Example 54]
JAK 1 (pKi) [1]: E (E represents a pKi value of 7 or below (Ki of 100 nM or above))
JAK 3 (pKi) [2]: B (B represents pKi value between 9 and 10 (Ki between 1 nM and 0.1 nM))
JAK3 (pKi)-JAK1 (pKi) [2, 7]: A (A represents a value of 3 or above)
Tall-1 (pIC50) [3, 8]: C (C represents a pIC50 value between 6 and 6.7 (IC50 between 1 μM and 200 nM))
Caco Kp [4]: C (C represents a value between 10×10^−6 and 30×10^−6 cm/sec)

C=CC(=O)N1CC(CCn2c(=O)ccc3cnc(Nc4ccc(C5CCN(C)CC5)cc4)nc32)C1 [Example 77]
JAK 1 (pKi) [1]: E (E represents a pKi value of 7 or below (Ki of 100 nM or above))
JAK 3 (pKi) [2]: B (B represents pKi value between 9 and 10 (Ki between 1 nM and 0.1 nM))
JAK3 (pKi)-JAK1 (pKi) [2, 7]: A (A represents a value of 3 or above)
Tall-1 (pIC50) [3, 8]: B (B represents a pC50 value between 6.7 (included) and 7.5 (IC50 between 200 nM and 32 nM))
Caco Kp [4]: A (A represents a value below 5×10^−6 cm/sec)

C=CC(=O)N1CC(C(C)(C)Cn2c(=O)ccc3cnc(Nc4ccc(N5CCN(C)CC5)cc4)nc32)C1 [Example 246]
JAK 1 (pKi) [1]: E (E represents a pKi value of 7 or below (Ki of 100 nM or above))
JAK 2 (pKi) [5]: E (E represents a pKi value of 7 or below (Ki of 100 nM or above))
JAK 3 (pKi) [2]: B (B represents pKi value between 9 and 10 (Ki between 1 nM and 0.1 nM))
JAK3 (pKi)-JAK1 (pKi) [2, 9]: A (A represents a value of 3 or above)
Tyk 2 (pKi) [6]: E (E represents a pKi value of 7 or below (Ki of 100 nM or above))
Tall-1 (pIC50) [3, 10]: B (B represents a pC50 value between 6.7 (included) and 7.5 (IC50 between 200 nM and 32 nM))

C=CC(=O)N1CC(CCn2c(=O)ccc3cnc(Nc4ccc(N5C[C@@H](C)N(C)[C@@H](C)C5)cc4)nc32)C1 [Example 247]
JAK 1 (pKi) [1]: E (E represents a pKi value of 7 or below (Ki of 100 nM or above))
JAK 2 (pKi) [5]: E (E represents a pKi value of 7 or below (Ki of 100 nM or above))
JAK 3 (pKi) [2]: B (B represents pKi value between 9 and 10 (Ki between 1 nM and 0.1 nM))
JAK3 (pKi)-JAK1 (pKi) [2, 9]: A (A represents a value of 3 or above)
Tyk 2 (pKi) [6]: E (E represents a pKi value of 7 or below (Ki of 100 nM or above))
Tall-1 (pIC50) [3, 10]: A (A represents a pIC50 value≥7.5 (IC50≤32 nM))

C=CC(=O)N1CCN(CCn2c(=O)ccc3cnc(Nc4ccc(N5C[C@@H](C)N(C)[C@@H](C)C5)cc4)nc32)CC1 [Example 248]
JAK 1 (pKi) [1]: E (E represents a pKi value of 7 or below (Ki of 100 nM or above))
JAK 2 (pKi) [5]: E (E represents a pKi value of 7 or below (Ki of 100 nM or above))
JAK 3 (pKi) [2]: B (B represents pKi value between 9 and 10 (Ki between 1 nM and 0.1 nM))
JAK3 (pKi)-JAK1 (pKi) [2, 9]: A (A represents a value of 3 or above)
Tyk 2 (pKi) [6]: E (E represents a pKi value of 7 or below (Ki of 100 nM or above))
Tall-1 (pIC50) [3, 10]: A (A represents a pIC50 value≥7.5 (IC50≤32 nM))

C=CC(=O)N1CCN(CCn2c(=O)ccc3cnc(Nc4ccc(N5C[C@@H](C)N(C)[C@@H](C)C5)cc4)nc32)[C@@H](C)C1 [Example 249]
JAK 1 (pKi) [1]: E (E represents a pKi value of 7 or below (Ki of 100 nM or above))
JAK 2 (pKi) [5]: E (E represents a pKi value of 7 or below (Ki of 100 nM or above))
JAK 3 (pKi) [2]: B (B represents pKi value between 9 and 10 (Ki between 1 nM and 0.1 nM))
JAK3 (pKi)-JAK1 (pKi) [2, 9]: A (A represents a value of 3 or above)
Tyk 2 (pKi) [6]: E (E represents a pKi value of 7 or below (Ki of 100 nM or above))
Tall-1 (pIC50) [3, 10]: A (A represents a pIC50 value≥7.5 (IC50≤32 nM))

C=CC(=O)N1CCN(CCn2c(=O)ccc3cnc(Nc4cnn(C5CCOCC5)c4)nc32)[C@@H](C)C1 [Example 250]
JAK 1 (pKi) [1]: E (E represents a pKi value of 7 or below (Ki of 100 nM or above))
JAK 2 (pKi) [5]: E (E represents a pKi value of 7 or below (Ki of 100 nM or above))
JAK 3 (pKi) [2]: B (B represents pKi value between 9 and 10 (Ki between 1 nM and 0.1 nM))
JAK3 (pKi)-JAK1 (pKi) [2, 9]: A (A represents a value of 3 or above)
Tyk 2 (pKi) [6]: E (E represents a pKi value of 7 or below (Ki of 100 nM or above))
Tall-1 (pIC50) [3, 10]: B (B represents a pC50 value between 6.7 (included) and 7.5 (IC50 between 200 nM and 32 nM))

C=CC(=O)N1CCN(CCn2c(=O)ccc3cnc(Nc4ccc(N5CCN(C)[C@@H](C)C5)cc4)nc32)[C@@H](C)C1 [Example 251]
JAK 1 (pKi) [1]: E (E represents a pKi value of 7 or below (Ki of 100 nM or above))
JAK 2 (pKi) [5]: E (E represents a pKi value of 7 or below (Ki of 100 nM or above))
JAK 3 (pKi) [2]: B (B represents pKi value between 9 and 10 (Ki between 1 nM and 0.1 nM))
JAK3 (pKi)-JAK1 (pKi) [2, 9]: A (A represents a value of 3 or above)
Tyk 2 (pKi) [6]: E (E represents a pKi value of 7 or below (Ki of 100 nM or above))
Tall-1 (pIC50) [3, 10]: B (B represents a pC50 value between 6.7 (included) and 7.5 (IC50 between 200 nM and 32 nM))

C=CC(=O)N1CCN(CCn2c(=O)ccc3cnc(Nc4ccc(N5CCN(C)[C@@H](C)C5)nc4)nc32)[C@@H](C)C1 [Example 252]
JAK 1 (pKi) [1]: E (E represents a pKi value of 7 or below (Ki of 100 nM or above))
JAK 2 (pKi) [5]: E (E represents a pKi value of 7 or below (Ki of 100 nM or above))
JAK 3 (pKi) [2]: B (B represents pKi value between 9 and 10 (Ki between 1 nM and 0.1 nM))
JAK3 (pKi)-JAK1 (pKi) [2, 9]: A (A represents a value of 3 or above)
Tyk 2 (pKi) [6]: E (E represents a pKi value of 7 or below (Ki of 100 nM or above))
Tall-1 (pIC50) [3, 10]: B (B represents a pC50 value between 6.7 (included) and 7.5 (IC50 between 200 nM and 32 nM))
